Reference: US20040132821A1, “Therapeutic combination of carnitine and antioxidant polyphenols” (priority 2002, published 2004)
Like-named read-outs stand apart in the source and are kept apart here.

Tests used:
rats = assay: Toxicological test, parenteral administration, rats; format: in vivo
Description: (§1) Both carnitines and hydroxytyrosol are well known for their low toxicity and good tolerability. These favorable toxicological characteristics of carnitines and hydroxytyrosol have been confirmed.

mice = assay: Toxicological test, parenteral administration, mice; format: in vivo
Description: as §1

[1] = humans, after ingestion; cited from earlier work
[2] = after consumption of a meal, hydroxytyrosol in olive oil; cited from earlier work
[3] = cited from earlier work

| SMILES | amount possible to administer parenterally (rats) | amount possible to administer parenterally (mice) | preferential route of excretion [1] | time of peak postprandial concentration [2] [h] | oral bioavailability ([3]; aqueous solution) [%] | oral bioavailability ([3]; olive oil solution) [%] |
| --- | --- | --- | --- | --- | --- | --- |
| CC(=O)O[C@H](CC(=O)[O-])C[N+](C)(C)C [acetyl-L-carnitine, Acetyl-L-carnitine] | up to 250 mg/kg | up to 250 mg/kg |  |  |  |  |
| OCCc1ccc(O)c(O)c1 [hydroxytyrosol, Hydroxytyrosol] |  |  | glucuronide conjugates in urine | 1 to 2 | 71 | 99 |
